Reference: patent publication US20240115554A1, “METHODS FOR TREATING OBSTRUCTIVE HYPERTROPHIC CARDIOMYOPATHY” (Cytokinetics, Incorporated, priority 2022, published 2024)
“Also recorded” adds a separate entry of the source.

Columns and labels:
[1] = tested on: patients with symptomatic oHCM; experiment: Open-label extension: cardiac biomarkers (NT-proBNP, hs-cTnI); format: in vivo, human; conditions: Week 48
Method: At Weeks 4, 6, 12, and every 12 weeks thereafter, each patient has an echocardiogram or truncated echocardiogram following administration of their dose (a truncated echocardiogram at weeks 4 and 6; and an echocardiogram at week 12 and every 12 weeks thereafter) to determine whether additional dose titration is needed (see Table 21 and Table 22). Patient reported outcomes, laboratory assessments, measurements of NT-proBNP, hs-cTnI, and other biomarkers are performed at week 12 and every 12 weeks thereafter. Ambulatory cardiac monitoring is performed on weeks 48, 96, 144, 192 and 240 Cardiac magnetic resonance is monitored at weeks 48, 144 and 240. If a patient develops an LVEF <40% after the Week 2 visit, a repeat echocardiogram may be performed to confirm the initial finding (preferably within 24 hours). If the echocardiography findings are confirmed, the patient will undergo a ≥2-day drug holiday.

[2] = tested on: patients with symptomatic obstructive HCM (oHCM); experiment: Phase 2 trial: safety and tolerability
Description: Seventeen investigative sites in North America and Europe screened for patients to enroll in Cohorts 1 and 2.
The first two cohorts (Cohort 1 and Cohort 2) excluded patients receiving disopyramide. Cohort 3 included patients receiving disopyramide. […] Overall, the treatment duration was 10 weeks with a 4-week follow-up period after the last dose.

healthy adults = conditions: in vivo
Description: Study Overview and Ethics. The study used a randomized, placebo-controlled, single-ascending dose (SAD) and multiple-ascending dose (MAD) design (FIG. 2). […] Dose escalation was to be stopped when this range was achieved, or when a non-tolerated dose was identified, if earlier.
Single-ascending dose (SAD) cohorts. The SAD portion of the study used a randomized, double-blind, placebo-controlled, sequential, escalating-dose design, in which participants received single-ascending oral doses of the study drug. Seven cohorts were dosed in sequence (FIG. 2).
Recommendations regarding dose escalation in the SAD cohorts—and in the MAD cohorts described below—were made by the treating investigator (who was blinded to treatment group) and endorsed or not by the Dose Level Review Committee (DLRC), who were unblinded. […] Criteria for escalation included that no more than 2 participants in a dose group developed an LVEF <50% and no individual developed an LVEF <45%.
Multiple-ascending dose (MAD) cohorts. The MAD cohorts also used a randomized, double-blind, placebo-controlled, sequential design.
Safety and tolerability. Safety was assessed by the incidence of adverse events (AEs) and by incidence of reduced LVEF. Treatment-emergent AEs (TEAE) were defined as AEs that began or increased after study drug administration. All AEs were coded using the Medical Dictionary for Regulatory Activities version 21.1 and graded using the National Cancer Institute Common Terminology Criteria for AEs (version 4.03) 5-point severity scale. Each AE was judged as either related or unrelated to the study drug by the treating investigator. Clinical laboratory tests were obtained at regular intervals in all cohorts.
For safety monitoring, participants in all cohorts had periodic echocardiograms, which were assessed by a cardiologist. In the SAD and MAD cohorts, echocardiograms were also reviewed by an echocardiography core laboratory for PD assessments, as described below. In addition, participants in all cohorts were monitored with continuous 12-lead ECG recording using Holter monitors. For safety monitoring, a single 12-lead ECG was extracted at screening, pre-dose, and periodically throughout follow-up, and interpreted by the investigator. In the SAD, MAD, and CYP2D6-PM cohorts, cardiodynamic ECGs (triplicate 10-second, 12-lead ECG recordings) were obtained prior to the corresponding PK blood and ECG intervals quantitated by qualified readers.

[3] = tested on: patients with symptomatic oHCM; experiment: Open-label extension: safety and tolerability; format: in vivo, human; conditions: for Patients with TEAE Leading to Dose Reduction / Patients with TEAE Leading to Drug Interruption / Patients with at Least One Related TEAE / Patients with at Least One Severe TEAE / Patients with at Least One TEAE / Patients with at Least One TESAE: open-label extension, preliminary safety
Method: An open-label extension clinical trial of aficamten in patients with symptomatic oHCM was initiated.
An open-label extension clinical trial of aficamten in patients with symptomatic oHCM was initiated. The treatment duration is anticipated to be multiple years.
Safety and tolerability are evaluated by (i) patient incidence of adverse events, (ii) patient incidence of serious adverse events, (iii) patient incidence of LVEF <50%.

[4] = Cohort 1, 21 randomized 2:1 aficamten (5, 10, 15 mg once daily) or placebo, 10 weeks
[5] = Cohort 2, 20 randomized 2:1 aficamten (10, 20, 30 mg once daily) or placebo, 10 weeks
[6] = Cohort 3, 13 patients, aficamten (5, 10, 15 mg once daily) on top of disopyramide, 10 weeks
[7] = Total, Cohorts 1-3, 54 patients

In the case of CCc1nc(-c2ccc3c(c2)CC[C@H]3NC(=O)c2cnn(C)c2)no1 [aficamten, (R)—N-(5-(5-ethyl-1,2,4-oxadiazol-3-yl)-2,3-dihydro-1H-inden-1-yl)-1-methyl-1H-pyrazole-4-carboxamide], the “NT pro-BNP reduction from baseline” value [1] is reported as 70%, the “patients with LVEF <50%” value ([2]; Cohort 1) is reported as “No patients” and the “Patients with TEAEs leading to drug interruption or termination” value (“Patients with TEAEs leading” below) [2, 4] is reported as 0 N. For the same molecule, the “Patients with fatal TEAEs” value [2, 4] was 0 N, the “TEAE of LVEF <50% (Core Lab)” value [2, 4] was 0 N and the “patients with transient LVEF reduction to <50% requiring down titration” value ([2]; Cohort 2, 20 mg) was “one patient”. For the same molecule, the “Patients with TEAEs leading” value [2, 5] was 0 N, the “Patients with TESAEs” value [2, 5] was 0 N and the “Patients with fatal TEAEs” value [2, 5] was 0 N. The “changes in QTc interval or vital signs” value ([2]; Cohort 3) was “no significant changes in QTc interval, or vital signs”, the “moderate adverse events recorded” value ([2]; Cohort 3) was “six” and the “patients with LVEF <50%” value ([2]; Cohort 3) was “No patients experienced LVEF <50%”. The “serious adverse events, dose interruptions, discontinuations” value ([2]; Cohort 3) was “no serious adverse events attributed to treatment; also recorded: no dose interruptions, treatment discontinuations, or serious adverse events”, the “Patients with TEAEs leading” value [2, 6] was 0 N and the “Patients with TESAEs” value [2, 6] was 0 N. For the same molecule, the “Patients with fatal TEAEs” value [2, 6] was 0 N, the “TEAE of LVEF <50% (Core Lab)” value [2, 6] was 0 N and the “adverse event of asymptomatic atrial fibrillation” value ([2]; Cohort 3, patient with known prior history) was “One”. The “interruptions or discontinuations of treatment” value ([2]; Cohorts 1 and 2) was “no treatment interruptions; also recorded: No interruptions or discontinuations”, the “new cases of atrial fibrillation” value ([2]; Cohorts 1 and 2) was “No new cases of atrial fibrillation” and the “severity of adverse events” value ([2]; Cohorts 1 and 2) was “mild or moderate”. The “treatment related serious adverse events” value ([2]; Cohorts 1 and 2) was “No serious adverse events were attributed to aficamten; also recorded: no treatment related serious adverse events”, the “reversibility of LVEF effect after end of treatment” value ([2]; Phase 2 cohorts) was “returned towards baseline within two weeks after the end of treatment; also recorded: returned to baseline after the 2-week washout” and the “Patients with TEAEs leading” value [2, 7] was 0 N. The “Patients with fatal TEAEs” value [2, 7] was 0 N, the “participants with echocardiogram-related AEs of decreased ejection fraction <45%” value (healthy adults; human) was 3 participants and the “overall safety and tolerability” value (healthy adults) was “safe and well tolerated”. For the same molecule, the “post-dose LVEF of 1 participant with LVEF <50%” value (healthy adults) was 46.2%, the “serum chemistry, hematology, urinalysis findings” value (healthy adults) was “No clinically significant serum chemistry, hematology, or urinalysis findings” and the “safety events deemed related to aficamten therapy by investigators” value ([3]; BTR/W analysis) was “no safety events deemed related to aficamten therapy”. The “LVEF during recurrent alcohol induced atrial fibrillation” value ([3]; one patient on 15 mg) was 47%, the “events of LVEF <50% attributed to aficamten” value ([3]; open label extension) was “no events of LVEF <50% attributed to aficamten; also recorded: no patients experienced aficamten related reduction in LVEF <50%; also recorded: no instances of systolic dysfunction (LVEF <50%) attributed to aficamten” and the tolerability ([3]; open label extension, Example 3a) was “well tolerated”. The “Patients with TEAE Leading to Dose Reduction” value ([3]; N = 38) was “(5%)”, the “Patients with TEAE Leading to Drug Interruption” value ([3]; N = 38) was “(3%)” and the “Patients with at Least One Related TEAE” value ([3]; N = 38) was “(21%)”. For the same molecule, the “Patients with at Least One Severe TEAE” value ([3]; N = 38) was “(3%)”, the “Patients with at Least One TEAE” value ([3]; N = 38) was “(74%)” and the “Patients with at Least One TESAE” value ([3]; N = 38) was “(5%)”. The “Patients with TEAE Leading to Dose Reduction” value ([3]; N = 38, number of patients) was 2, the “Patients with TEAE Leading to Drug Interruption” value ([3]; N = 38, number of patients) was 1 and the “Patients with at Least One Related TEAE” value ([3]; N = 38, number of patients) was 8. For the same molecule, the “Patients with at Least One Severe TEAE” value ([3]; N = 38, number of patients) was 1, the “Patients with at Least One TEAE” value ([3]; N = 38, number of patients) was 28 and the “Patients with at Least One TESAE” value ([3]; N = 38, number of patients) was 2.
